Laboratory results reported in patent publication US8796289B2 (AbbVie Inc., priority 2011, dated 2014).
pKi: −log10 of the molar value.

molecular target: GST-tagged-Wee1 kinase (Homo sapiens, UniProt P30291); experiment: Wee1 time-resolved fluorescence equilibrium binding assay (displacement of Oregon Green-labeled ATP-competitive kinase probe)
Method: Wee1 kinase was assayed using a time-resolved fluorescence equilibrium binding assay monitoring displacement of a rapidly reversible Oregon Green-labeled ATP-competitive kinase probe (N-(2-(2-(2-(4-(4-(5-chloro-4-(2-(1-hydroxycyclobutyl)thiazol-5-yl)-1H-pyrrolo[2,3-b]pyridin-2-yl)phenyl)piperazin-1-yl)ethoxy)ethoxy)ethyl)-2′,7′-difluoro-3′,6′-dihydroxy-3-oxo-3H-spiro[isobenzofuran-1,9′-xanthene]-5-carboxamide) by competitive Wee1 inhibitors.

Chain of GST-tagged-Wee1 kinase (P30291 whole entry): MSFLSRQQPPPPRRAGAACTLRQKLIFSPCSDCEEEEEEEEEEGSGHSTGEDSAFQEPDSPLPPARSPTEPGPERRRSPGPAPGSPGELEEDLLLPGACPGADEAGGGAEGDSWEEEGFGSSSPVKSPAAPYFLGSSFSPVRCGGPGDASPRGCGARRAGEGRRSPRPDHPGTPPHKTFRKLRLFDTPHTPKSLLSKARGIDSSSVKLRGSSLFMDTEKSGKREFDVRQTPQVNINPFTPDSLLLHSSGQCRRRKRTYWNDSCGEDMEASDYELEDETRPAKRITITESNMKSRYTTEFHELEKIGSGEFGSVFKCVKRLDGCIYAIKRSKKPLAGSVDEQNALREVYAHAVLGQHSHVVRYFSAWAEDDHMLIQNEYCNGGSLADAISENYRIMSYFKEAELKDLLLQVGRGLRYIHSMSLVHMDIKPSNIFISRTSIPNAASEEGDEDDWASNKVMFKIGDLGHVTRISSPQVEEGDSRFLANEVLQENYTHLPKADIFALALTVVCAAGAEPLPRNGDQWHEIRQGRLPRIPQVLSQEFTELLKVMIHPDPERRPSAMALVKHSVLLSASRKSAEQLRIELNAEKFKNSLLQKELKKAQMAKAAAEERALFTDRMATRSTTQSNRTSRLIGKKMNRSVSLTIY

Row | SMILES | pKi
1 | Cc1cccc(Cl)c1-n1nc(C)c2nc(Nc3ccc4c(c3)CN(CCO)CC4)ncc2c1=O [Example 499, 6-(2-chloro-6-methylphenyl)-2-{[2-(2-hydroxyethyl)-1,2,3,4-tetrahydroisoquinolin-7-yl]amino}-8-methylpyrimido[4,5-d]pyridazin-5(6H)-one] | 9.68
2 | Cc1cccc(Cl)c1-n1nc(C)c2nc(Nc3ccc(N4CCN(CCCN(C)C)CC4)cc3)ncc2c1=O [Example 500, 6-(2-chloro-6-methylphenyl)-2-[(4-{4-[3-(dimethylamino)propyl]piperazin-1-yl}phenyl)amino]-8-methylpyrimido[4,5-d]pyridazin-5(6H)-one] | 9.29
3 | Cc1cccc(Cl)c1-n1nc(C)c2nc(Nc3ccc(NC4CCN(C)CC4)cc3)ncc2c1=O [Example 501, 6-(2-chloro-6-methylphenyl)-8-methyl-2-({4-[(1-methylpiperidin-4-yl)amino]phenyl}amino)pyrimido[4,5-d]pyridazin-5(6H)-one] | 9.49
4 | Cc1cccc(Cl)c1-n1nc(C)c2nc(Nc3ccc(OC4CCN(C)CC4)cc3)ncc2c1=O [Example 502, 6-(2-chloro-6-methylphenyl)-8-methyl-2-({4-[(1-methylpiperidin-4-yl)oxy]phenyl}amino)pyrimido[4,5-d]pyridazin-5(6H)-one] | 9.44
5 | Cc1nn(-c2c(Cl)cccc2Cl)c(=O)c2cnc(Nc3ccc(OC4CCN(C)CC4)cc3)nc12 [Example 503, 6-(2,6-dichlorophenyl)-8-methyl-2-({4-[(1-methylpiperidin-4-yl)oxy]phenyl}amino)pyrimido[4,5-d]pyridazin-5(6H)-one] | 10.00
6 | Cc1nn(-c2c(Cl)cccc2Cl)c(=O)c2cnc(Nc3cccc(N4CCCCC4)c3)nc12 [Example 504, 6-(2,6-dichlorophenyl)-8-methyl-2-{[3-(piperidin-1-yl)phenyl]amino}pyrimido[4,5-d]pyridazin-5(6H)-one] | 8.43
7 | Cc1nn(-c2c(Cl)cccc2Cl)c(=O)c2cnc(Nc3cccc(N4CCOCC4)c3)nc12 [Example 505, 6-(2,6-dichlorophenyl)-8-methyl-2-{[3-(morpholin-4-yl)phenyl]amino}pyrimido[4,5-d]pyridazin-5(6H)-one] | 8.57
8 | Cc1nn(-c2c(Cl)cccc2Cl)c(=O)c2cnc(Nc3cccc(N4CCNCC4)c3)nc12 [Example 506, 6-(2,6-dichlorophenyl)-8-methyl-2-{[3-(piperazin-1-yl)phenyl]amino}pyrimido[4,5-d]pyridazin-5(6H)-one] | 9.27
9 | Cc1nn(-c2c(Cl)cccc2Cl)c(=O)c2cnc(Nc3cccc(N4CCN(CCCCl)CC4)c3)nc12 [Example 507, 2-({3-[4-(3-chloropropyl)piperazin-1-yl]phenyl}amino)-6-(2,6-dichlorophenyl)-8-methylpyrimido[4,5-d]pyridazin-5(6H)-one] | 8.62
10 | Cc1nn(-c2c(Cl)cccc2Cl)c(=O)c2cnc(Nc3cccc(N4CCN(C5CCC5)CC4)c3)nc12 [Example 508, 2-{[3-(4-cyclobutylpiperazin-1-yl)phenyl]amino}-6-(2,6-dichlorophenyl)-8-methylpyrimido[4,5-d]pyridazin-5(6H)-one] | 8.70
11 | Cc1nn(-c2c(Cl)cccc2Cl)c(=O)c2cnc(Nc3cccc(N4CCN(C5CCOCC5)CC4)c3)nc12 [Example 509, 6-(2,6-dichlorophenyl)-8-methyl-2-({3-[4-(tetrahydro-2H-pyran-4-yl)piperazin-1-yl]phenyl}amino)pyrimido[4,5-d]pyridazin-5(6H)-one] | 8.92
12 | Cc1nn(-c2c(Cl)cccc2Cl)c(=O)c2cnc(Nc3cccc(N4CCN(CCCO)CC4)c3)nc12 [Example 510, 6-(2,6-dichlorophenyl)-2-({3-[4-(3-hydroxypropyl)piperazin-1-yl]phenyl}amino)-8-methylpyrimido[4,5-d]pyridazin-5(6H)-one] | 8.96
13 | Cc1nn(-c2c(Cl)cccc2Cl)c(=O)c2cnc(Nc3cccc(N4CCN(C)CC4)c3)nc12 [Example 511, 6-(2,6-dichlorophenyl)-8-methyl-2-{[3-(4-methylpiperazin-1-yl)phenyl]amino}pyrimido[4,5-d]pyridazin-5(6H)-one] | 9.34
14 | Cc1nn(-c2c(Cl)cccc2Cl)c(=O)c2cnc(Nc3cccc(N4CCN(C5COC5)CC4)c3)nc12 [Example 512, 6-(2,6-dichlorophenyl)-8-methyl-2-({3-[4-(oxetan-3-yl)piperazin-1-yl]phenyl}amino)pyrimido[4,5-d]pyridazin-5(6H)-one] | 8.85
15 | Cc1nn(-c2c(Cl)cccc2Cl)c(=O)c2cnc(Nc3cccc(NCCN4CCOCC4)c3)nc12 [Example 513, 6-(2,6-dichlorophenyl)-8-methyl-2-[(3-{[2-(morpholin-4-yl)ethyl]amino}phenyl)amino]pyrimido[4,5-d]pyridazin-5(6H)-one] | 8.96
16 | Cc1nn(-c2c(Cl)cccc2Cl)c(=O)c2cnc(Nc3cccc(N4CCN(CCCN(C)C)CC4)c3)nc12 [Example 515, 6-(2,6-dichlorophenyl)-2-[(3-{4-[3-(dimethylamino)propyl]piperazin-1-yl}phenyl)amino]-8-methylpyrimido[4,5-d]pyridazin-5(6H)-one] | 9.72
17 | Cc1nn(-c2c(Cl)cccc2Cl)c(=O)c2cnc(Nc3cccc(OC4CCN(C)CC4)c3)nc12 [Example 516, 6-(2,6-dichlorophenyl)-8-methyl-2-({3-[(1-methylpiperidin-4-yl)oxy]phenyl}amino)pyrimido[4,5-d]pyridazin-5(6H)-one] | 9.44
18 | Cc1nn(-c2c(Cl)cccc2Cl)c(=O)c2cnc(Nc3ccc(N4CCN(CCCN(C)C)CC4)cc3)nc12 [Example 517, 6-(2,6-dichlorophenyl)-2-[(4-{4-[3-(dimethylamino)propyl]piperazin-1-yl}phenyl)amino]-8-methylpyrimido[4,5-d]pyridazin-5(6H)-one] | 9.62
19 | Cc1nn(-c2ccccc2Cl)c(=O)c2cnc(Nc3ccc(N4CCN(CCCN(C)C)CC4)cc3)nc12 [Example 518, 6-(2-chlorophenyl)-2-[(4-{4-[3-(dimethylamino)propyl]piperazin-1-yl}phenyl)amino]-8-methylpyrimido[4,5-d]pyridazin-5(6H)-one] | 9.15

Continued, values first:

Row | pKi | SMILES
20 | 9.12 | Cc1nn(-c2c(Cl)cccc2Cl)c(=O)c2cnc(Nc3cccc(C(=O)N4CCC(N(C)C)CC4)c3)nc12 [Example 519, 6-(2,6-dichlorophenyl)-2-[(3-{[4-(dimethylamino)piperidin-1-yl]carbonyl}phenyl)amino]-8-methylpyrimido[4,5-d]pyridazin-5(6H)-one]
21 | 9.35 | Cc1nn(-c2c(Cl)cccc2Cl)c(=O)c2cnc(Nc3cccc(C(=O)NC4CCC(N(C)C)CC4)c3)nc12 (stereo not drawn) [Example 520, 3-{[6-(2,6-dichlorophenyl)-8-methyl-5-oxo-5,6-dihydropyrimido[4,5-d]pyridazin-2-yl]amino}-N-[4-(dimethylamino)cyclohexyl]benzamide]
22 | 9.89 | Cc1nn(-c2c(Cl)cccc2Cl)c(=O)c2cnc(Nc3cccc(NC4CCN(C)CC4)c3)nc12 [Example 522, 6-(2,6-dichlorophenyl)-8-methyl-2-({3-[(1-methylpiperidin-4-yl)amino]phenyl}amino)pyrimido[4,5-d]pyridazin-5(6H)-one]
23 | 9.30 | Cc1nn(-c2c(Cl)cccc2Cl)c(=O)c2cnc(Nc3cccc(C(=O)NC4CCN(C)CC4)c3)nc12 [Example 523, 3-{[6-(2,6-dichlorophenyl)-8-methyl-5-oxo-5,6-dihydropyrimido[4,5-d]pyridazin-2-yl]amino}-N-(1-methylpiperidin-4-yl)benzamide]
24 | 9.52 | Cc1cccc(Cl)c1-n1nc(C)c2nc(Nc3ccc(NC4CCNCC4)cc3)ncc2c1=O [Example 524, 6-(2-chloro-6-methylphenyl)-8-methyl-2-{[4-(piperidin-4-ylamino)phenyl]amino}pyrimido[4,5-d]pyridazin-5(6H)-one]
25 | 9.70 | Cc1nn(-c2c(Cl)cccc2Cl)c(=O)c2cnc(Nc3ccc(NC4CCNCC4)cc3)nc12 [Example 525, 6-(2,6-dichlorophenyl)-8-methyl-2-{[4-(piperidin-4-ylamino)phenyl]amino}pyrimido[4,5-d]pyridazin-5(6H)-one]
26 | 9.32 | Cc1nn(-c2ccccc2Cl)c(=O)c2cnc(Nc3ccc(NC4CCNCC4)cc3)nc12 [Example 526, 6-(2-chlorophenyl)-8-methyl-2-{[4-(piperidin-4-ylamino)phenyl]amino}pyrimido[4,5-d]pyridazin-5(6H)-one]
27 | 8.55 | Cc1nn(-c2c(Cl)cccc2Cl)c(=O)c2cnc(Nc3cccc(C(=O)N4CCN(CCO)CC4)c3)nc12 [Example 527, 6-(2,6-dichlorophenyl)-2-[(3-{[4-(2-hydroxyethyl)piperazin-1-yl]carbonyl}phenyl)amino]-8-methylpyrimido[4,5-d]pyridazin-5(6H)-one]
28 | 8.62 | Cc1nn(-c2c(Cl)cccc2Cl)c(=O)c2cnc(Nc3cccc(C(=O)N4CCN(C)CC4)c3)nc12 [Example 528, 6-(2,6-dichlorophenyl)-8-methyl-2-({3-[(4-methylpiperazin-1-yl)carbonyl]phenyl}amino)pyrimido[4,5-d]pyridazin-5(6H)-one]
29 | 8.03 | Cc1nn(-c2c(Cl)cccc2Cl)c(=O)c2cnc(Nc3cccc(C(=O)N4CCS(=O)(=O)CC4)c3)nc12 [Example 529, 6-(2,6-dichlorophenyl)-2-({3-[(1,1-dioxidothiomorpholin-4-yl)carbonyl]phenyl}amino)-8-methylpyrimido[4,5-d]pyridazin-5(6H)-one]
30 | 9.52 | Cc1nn(-c2c(Cl)cccc2Cl)c(=O)c2cnc(Nc3cccc(C(=O)NC4CCNCC4)c3)nc12 [Example 530, 3-{[6-(2,6-dichlorophenyl)-8-methyl-5-oxo-5,6-dihydropyrimido[4,5-d]pyridazin-2-yl]amino}-N-(piperidin-4-yl)benzamide]
